Experiment [1] has as its system HCT116 (human colorectal carcinoma) cells. As to conditions: cited from earlier work; for IC50: previously reported (footnote a, Barker et al. 2013) or background art table; for less potent than vinblastine: cell growth inhibition, background art (Leggans 2012; Barker 2012).
Experiment [2] deals with HCT116/VM46 (a vinblastine-resistant strain of HCT116) cells. Conditions: previously reported (footnote a, Barker et al. 2013) or background art table; cited from earlier work.
The test system of experiment [3] is L1210 (mouse lymphocytic leukemia) cells. Description: Cell growth inhibition assay, L1210. As to conditions: 72 hours incubation, phosphatase assay. The class given is cell-based. On the procedure:
(§1) Compounds were tested for their cell growth inhibition of L1210 (ATCC no. CCL-219, mouse lymphocytic leukemia) cells, HCT116 (ATCC no. CCL-247, human colorectal carcinoma) cells, and HCT116/VM46 (a vinblastine-resistant strain of HCT116) cells in culture. A population of cells (>1×10^6 cells/mL as determined with a hemocytometer) was diluted with an appropriate amount of Dulbecco's Modified Eagle Medium (DMEM, Gibco) containing 10% fetal bovine serum (FBS, Gibco) to a final concentration of 30000 cells/mL.
(§2) To each well of a 96-well plate (Corning Costar), 100 μL of the cell media solution was added with a multichannel pipet. The cultures were incubated at 37° C. in an atmosphere of 5% CO2 and 95% humidified air for 24 hours. The test compounds were added to the plate as follows: test substances were diluted in DMSO to a concentration of 1 mM and 10-fold serial dilutions were performed on a separate 96-well plate. Fresh culture medium (100 μL) was added to each well of cells to constitute 200 μL of medium per well followed by 2 μL of each test agent. Compounds were tested in duplicate (n=2-18 times) at six concentrations between 0-1000 nM or 0-10000 nM. Following addition, cultures were incubated for an additional 72 hours.
(§3) A phosphatase assay was used to establish the IC50 values as follows: the media in each cell was removed and 100 μL of phosphatase solution (100 mg phosphatase substrate in 30 mL of 0.1 M NaOAc, pH 5.5, 0.1% Triton X-100 buffer) was added to each well. The plates were incubated at 37° C. for either 5 minutes (L1210) or 15 minutes (HCT116 and HCT116/VM46). After the given incubation time, 50 μL of 0.1 N NaOH was added to each well and the absorption at 405 nm was determined using a 96 well plate reader. As the absorption is directly proportional to the number of living cells, the IC50 values were calculated and the reported values represent of the average of 4-36 determinations (SD±10%).

Experiment [4] relates to HCT116 (human colorectal carcinoma) cells. Description: cells. The experiment is classed as cell-based. As to conditions: read-out: IC50, HCT116. On the procedure: as §1, §2, §3
Experiment [5] relates to HCT116/VM46 (a vinblastine-resistant strain of HCT116) cells. Description: Cell growth inhibition assay, HCT116/VM46. The experiment is classed as cell-based, human. Conditions: 72 hours incubation, phosphatase assay, Pgp-overexpressing resistant line. On the procedure: as §1, §2, §3
Experiment [6] relates to vinblastine sensitive tumor cell lines (L1210 and HCT116). Description: Cell growth inhibition, vinblastine-sensitive lines stated together. The class given is cell-based. As to conditions: L1210 and HCT116, range over both lines; read-out: IC50's against vinblastine-sensitive tumor cell lines. On the procedure:
as §1, §2, §3

The mark [7] stands for this setting: 72 hours incubation, phosphatase assay.

Read-outs that look alike come from different tables or passages of the source. Bounds are passed on as bounds.

The IC50 is the concentration needed to halve the response being measured. Turning to `CC[C@@H]1C[C@H]2CN(CCc3c([nH]c4ccccc34)[C@@](C(=O)OC)(c3cc4c(cc3OC)N(C)[C@H]3[C@@](O)(C(=O)OC)[C@H](OC(C)=O)[C@]5(CC)C=CCN6CC[C@]43[C@@H]65)C2)C1` [Compound 4, reference compound], the IC50 was 60 nM in experiment [1] and 600 nM in experiment [2].

`CC[C@]1(N=[N+]=[N-])C[C@H]2CN(CCc3c([nH]c4ccccc34)[C@@](C(=O)OC)(c3cc4c(cc3OC)N(C)[C@H]3[C@@](O)(C(=O)OC)[C@H](OC(C)=O)[C@]5(CC)C=CCN6CC[C@]43[C@@H]65)C2)C1` [Compound 5]: in experiment [1], the “less potent than vinblastine” value is 100 fold and the IC50 was 690 nM. For the same compound, in experiment [2], the IC50 is 5500 nM.

Take `CC[C@]1(N)C[C@H]2CN(CCc3c([nH]c4ccccc34)[C@@](C(=O)OC)(c3cc4c(cc3OC)N(C)[C@H]3[C@@](O)(C(=O)OC)[C@H](OC(C)=O)[C@]5(CC)C=CCN6CC[C@]43[C@@H]65)C2)C1` [Compound 6, 20′-aminovinblastine]: in experiment [1], the “less potent than vinblastine” value is on record as 100 fold and the IC50 was 600 nM. Besides, the IC50 in experiment [2] is over 10000 nM.

For `CC[C@]1(NC(N)=O)C[C@H]2CN(CCc3c([nH]c4ccccc34)[C@@](C(=O)OC)(c3cc4c(cc3OC)N(C)[C@H]3[C@@](O)(C(=O)OC)[C@H](OC(C)=O)[C@]5(CC)C=CCN6CC[C@]43[C@@H]65)C2)C1` [Compound 7, reference compound], the IC50 was 7.5 nM in experiment [1] and 4400 nM in experiment [2].

With `CC[C@]1(NC(=O)N2Cc3ccc(NC(C)=O)cc3C2)C[C@H]2CN(CCc3c([nH]c4ccccc34)[C@@](C(=O)OC)(c3cc4c(cc3OC)N(C)[C@H]3[C@@](O)(C(=O)OC)[C@H](OC(C)=O)[C@]5(CC)C=CCN6CC[C@]43[C@@H]65)C2)C1` [Compound 40], the IC50 in experiment [3] was 0.47 nM; in experiment [4] (setting [7]), 0.5 nM; in experiment [5], 9.4 nM; in experiment [6], 0.47 to 0.5 nM.

For the compound `CCC(=O)Nc1ccc2c(c1)CN(C(=O)N[C@@]1(CC)C[C@H]3CN(CCc4c([nH]c5ccccc45)[C@@](C(=O)OC)(c4cc5c(cc4OC)N(C)[C@H]4[C@@](O)(C(=O)OC)[C@H](OC(C)=O)[C@]6(CC)C=CCN7CC[C@]54[C@@H]76)C3)C1)C2` [Compound 41], the IC50 was determined as 0.46 nM in experiment [3], 0.54 nM in experiment [4] (setting [7]) and 7.7 nM in experiment [5].

As to `CC[C@]1(NC(=O)N2Cc3ccc(NC(=O)C(C)C)cc3C2)C[C@H]2CN(CCc3c([nH]c4ccccc34)[C@@](C(=O)OC)(c3cc4c(cc3OC)N(C)[C@H]3[C@@](O)(C(=O)OC)[C@H](OC(C)=O)[C@]5(CC)C=CCN6CC[C@]43[C@@H]65)C2)C1` [Compound 43], the IC50 is 0.39 nM in experiment [3], 0.49 nM in experiment [4] (setting [7]) and 6.4 nM in experiment [5].

Consider `CC[C@]1(NC(=O)N2Cc3ccc(NC(=O)C(C)(C)C)cc3C2)C[C@H]2CN(CCc3c([nH]c4ccccc34)[C@@](C(=O)OC)(c3cc4c(cc3OC)N(C)[C@H]3[C@@](O)(C(=O)OC)[C@H](OC(C)=O)[C@]5(CC)C=CCN6CC[C@]43[C@@H]65)C2)C1` [Compound 44], for which the IC50 is 0.39 nM in experiment [3], 0.47 nM in experiment [4] (setting [7]) and 5.3 nM in experiment [5].

In the case of `CCCCCC(=O)Nc1ccc2c(c1)CN(C(=O)N[C@@]1(CC)C[C@H]3CN(CCc4c([nH]c5ccccc45)[C@@](C(=O)OC)(c4cc5c(cc4OC)N(C)[C@H]4[C@@](O)(C(=O)OC)[C@H](OC(C)=O)[C@]6(CC)C=CCN7CC[C@]54[C@@H]76)C3)C1)C2` [Compound 45], the IC50 worked out at 0.44 nM in experiment [3], 0.62 nM in experiment [4] (setting [7]) and 13 nM in experiment [5].

For the compound `C=CC(=O)Nc1ccc2c(c1)CN(C(=O)N[C@@]1(CC)C[C@H]3CN(CCc4c([nH]c5ccccc45)[C@@](C(=O)OC)(c4cc5c(cc4OC)N(C)[C@H]4[C@@](O)(C(=O)OC)[C@H](OC(C)=O)[C@]6(CC)C=CCN7CC[C@]54[C@@H]76)C3)C1)C2` [Compound 46], the concentration for half-maximal inhibition (IC50) is 0.38 nM in experiment [3], 0.3 nM in experiment [4] (setting [7]) and 7.1 nM in experiment [5].

Regarding `CC[C@]1(NC(=O)N2Cc3ccc(NC(=O)C=C(C)C)cc3C2)C[C@H]2CN(CCc3c([nH]c4ccccc34)[C@@](C(=O)OC)(c3cc4c(cc3OC)N(C)[C@H]3[C@@](O)(C(=O)OC)[C@H](OC(C)=O)[C@]5(CC)C=CCN6CC[C@]43[C@@H]65)C2)C1` [Compound 48], the half-inhibitory concentration (IC50) in experiment [3] is 0.43 nM; in experiment [4] (setting [7]), 0.47 nM; in experiment [5], 7.4 nM.

For `CC[C@]1(NC(=O)N2Cc3ccc(NC(=O)c4ccc(-c5ccccc5)cc4)cc3C2)C[C@H]2CN(CCc3c([nH]c4ccccc34)[C@@](C(=O)OC)(c3cc4c(cc3OC)N(C)[C@H]3[C@@](O)(C(=O)OC)[C@H](OC(C)=O)[C@]5(CC)C=CCN6CC[C@]43[C@@H]65)C2)C1` [Compound 51], the half-maximal inhibitory concentration (IC50) came out at 5.9 nM in experiment [3], 6.3 nM in experiment [4] (setting [7]) and 75 nM in experiment [5].

For `CC[C@]1(NC(=O)N2Cc3ccc(NC(=O)c4ccc(OC(F)(F)F)cc4)cc3C2)C[C@H]2CN(CCc3c([nH]c4ccccc34)[C@@](C(=O)OC)(c3cc4c(cc3OC)N(C)[C@H]3[C@@](O)(C(=O)OC)[C@H](OC(C)=O)[C@]5(CC)C=CCN6CC[C@]43[C@@H]65)C2)C1` [Compound 52], the results for the IC50 in experiment [3], in experiment [4] (setting [7]) and in experiment [5] were 4.3 nM, 5.3 nM and 75 nM, respectively.

`CC[C@]1(NC(=O)N2Cc3ccc(NC(=O)c4ccc(C(C)C)cc4)cc3C2)C[C@H]2CN(CCc3c([nH]c4ccccc34)[C@@](C(=O)OC)(c3cc4c(cc3OC)N(C)[C@H]3[C@@](O)(C(=O)OC)[C@H](OC(C)=O)[C@]5(CC)C=CCN6CC[C@]43[C@@H]65)C2)C1` [Compound 53]: the IC50 in experiment [3] was 2.9 nM; in experiment [4] (setting [7]), 4.2 nM; in experiment [5], 60 nM.

As for `CCC1(NC(=O)N2Cc3cc(OC)c(OC)cc3C2)C[C@H]2CN(CCc3c([nH]c4ccccc34)[C@@](C(=O)OC)(c3cc4c(cc3OC)N(C)[C@H]3C(O)(C(=O)OC)[C@H](OC(C)=O)[C@]5(CC)C=CCN6CC[C@]43[C@@H]65)C2)C1` (some centres unmarked) [Compound 54], the IC50 in experiment [3] (Mus musculus, L1210) was found to be 0.42 nM; in experiment [4] (Homo sapiens, HCT-116, 72 h), 0.45 nM; in experiment [5] (Homo sapiens, HCT-116/VM46), 5.2 nM.

`CC[C@]1(NC(=O)N2Cc3ccc(NC(=O)c4ccccn4)cc3C2)C[C@H]2CN(CCc3c([nH]c4ccccc34)[C@@](C(=O)OC)(c3cc4c(cc3OC)N(C)[C@H]3[C@@](O)(C(=O)OC)[C@H](OC(C)=O)[C@]5(CC)C=CCN6CC[C@]43[C@@H]65)C2)C1` [Compound 55]: the IC50 in experiment [3] is 0.37 nM; in experiment [4] (setting [7]) it was 0.49 nM; in experiment [5] it was 3.6 nM.

In the case of `CC[C@]1(NC(=O)N2Cc3ccc(NC(=O)c4cccnc4)cc3C2)C[C@H]2CN(CCc3c([nH]c4ccccc34)[C@@](C(=O)OC)(c3cc4c(cc3OC)N(C)[C@H]3[C@@](O)(C(=O)OC)[C@H](OC(C)=O)[C@]5(CC)C=CCN6CC[C@]43[C@@H]65)C2)C1` [Compound 56], the IC50 in experiment [3] stood at 0.48 nM; in experiment [4] (setting [7]) it was 0.33 nM; in experiment [5] it was 6.6 nM.

For `CC[C@]1(NC(=O)N2Cc3ccc(NC(=O)c4ccncc4)cc3C2)C[C@H]2CN(CCc3c([nH]c4ccccc34)[C@@](C(=O)OC)(c3cc4c(cc3OC)N(C)[C@H]3[C@@](O)(C(=O)OC)[C@H](OC(C)=O)[C@]5(CC)C=CCN6CC[C@]43[C@@H]65)C2)C1` [Compound 57], the IC50 in experiment [3] was 0.27 nM; in experiment [4] (setting [7]), 0.28 nM; in experiment [5], 10.4 nM.

For the compound `CC[C@]1(NC(=O)N2Cc3ccc(NC(=O)c4cncnc4)cc3C2)C[C@H]2CN(CCc3c([nH]c4ccccc34)[C@@](C(=O)OC)(c3cc4c(cc3OC)N(C)[C@H]3[C@@](O)(C(=O)OC)[C@H](OC(C)=O)[C@]5(CC)C=CCN6CC[C@]43[C@@H]65)C2)C1` [Compound 59], the IC50 in experiment [3] worked out at 0.51 nM; in experiment [4] (setting [7]), 0.6 nM; in experiment [5], 8.8 nM.

On to `CC[C@]1(NC(=O)N2Cc3ccc(NC(=O)c4ccnnc4)cc3C2)C[C@H]2CN(CCc3c([nH]c4ccccc34)[C@@](C(=O)OC)(c3cc4c(cc3OC)N(C)[C@H]3[C@@](O)(C(=O)OC)[C@H](OC(C)=O)[C@]5(CC)C=CCN6CC[C@]43[C@@H]65)C2)C1` [Compound 62], for which the figures for the IC50 in experiment [3], in experiment [4] (setting [7]) and in experiment [5] were 0.69 nM, 0.64 nM and 50 nM, respectively.

The values above are taken from patent US10975101B2, “Ultra-potent vinca alkaloids: added molecular complexity further disrupts the tublin dimer-dimer interface” (priority 2016, dated 2021).
